{"source": "patent US12398102B2", "about": "“Formulation for soft anticholinergic analogs” (BODOR LABORATORIES, INC., priority 2014, dated 2025)", "key": {"[1]": {"assay": "Toxicokinetics (PK samples) in the 14-day Göttingen Minipig study", "type": "in vivo, Göttingen Minipigs", "protocol": "(§1) All groups received 2 mL of gel formulation, once a day, for 14 consecutive days, applied to approximately 10% of their body surface area on their back.\n(§2) The study included daily observations of the site of application and scoring of erythema and edema (if present), daily general examinations including heart rate as well as pupil size assessments at days 1, 2, 3, 5, 7, 10 and 14. The frequent observations of heart rate and pupil size were intended to identify any potential systemic anticholinergic effect. Main organs were evaluated during necropsy and histopathology evaluation was completed for treated and untreated skin. Blood samples for chemistry and hematology analysis were collected as well as PK samples."}, "Göttingen Minipigs": {"tested_on": "Göttingen Minipigs", "assay": "14-day dermal and systemic toxicity study in Göttingen Minipigs", "details": "anhydrous composition, 14 days, dermal", "protocol": "as §1, §2\nThe estimated BBI-4000 dose applied to the skin in this study was 40 mg/kg/day for Group 3 and 20 mg/kg/day for Group 2."}, "[2]": {"assay": "Stability of approximately 2% BBI-4000 in four solvent systems (HPLC)", "type": "physicochemical", "details": "for BBI-4000 Assay, Change from Baseline (40° C./75%), reduction: Day 7", "description": "Various formulations of approximately 2% BBI-4000 were made and their stabilities assessed. The solvent systems were as follows: • (a) solvent content: 100% water; • (b) solvent content: 60% water/40% ethanol; • (c) solvent content: 30% water/70% ethanol; • (d) solvent content: 100% ethanol. Each sample was assessed at baseline; after 7 days at 25° C./60% humidity; and after 7 days at 40° C./75% humidity. The percentage change from baseline for 40° C. after 7 days was calculated in each case. HPLC analysis was conducted as described in EXAMPLE 2 below.\nThere is clearly a dramatic difference in the stability of the anhydrous ethanol formulation compared to the water-containing formulations."}, "[3]": {"tested_on": "subjects with axillary hyperhidrosis", "assay": "Study BBI-4000-CL-101: efficacy, gravimetric sweat production and HDSS", "type": "in vivo, human", "description": "Efficacy was assessed by the change in gravimetrically measured sweat production and the change in hyperhidrosis disease severity scale (HDSS) from baseline to Day 15 (end of therapy).\nFor the gravimetric assessment, sweat production was measured by placing filter paper (pre-weighed) on the axilla for 5 minutes while the subject was in a semi-reclining position at room temperature. The filter paper was covered with plastic during exposure to the axilla, and was then weighed following the 5-minute exposure period to calculate the amount of sweat produced.\nFor the HDSS, subjects rated the severity of their hyperhidrosis on a 4-point scale (1,2, 3, or 4) based on the level of interference with their daily activities."}, "[4]": {"assay": "HPLC assay and impurities of aqueous BBI-4000 gel formulations at differing pH", "type": "physicochemical", "details": "Day 7", "protocol": "The standards were prepared in duplicate by weighing 2.0±0.1 mg of BBI-4000 into 1 mL volumetric flasks. Dissolved and diluted to volume with acetonitrile and mixed by inversion.\nGel samples were prepared in duplicate at a target concentration of 2 mg/ml in a 5-mL volumetric flask. Added 1.5 ml H2O and mixed to disperse the sample. Diluted to volume with acetonitrile and filtered an aliquot through a syringe filter.\nThe liquid chromatographic system was set-up as follows: • HPLC Column: XBridge Shield RP18, 4.6×150 mm, 3.5 μm • Column Temp.: 25±1° C. • Sample Temp.: ambient • Flow Rate: 1.5 mL/min • Injection Volume: 10 μL • UV Detection: 220 nm • Run Time: 20 minutes"}, "[5]": {"details": "solvent 100% ethanol, Day 7 @ 25° C./60%"}}}
{"smiles": "CCOC(=O)C[N@+]1(C)CCC(OC(=O)[C@](O)(c2ccccc2)C2CCCC2)C1.[Br-]", "note": "(stereo partly drawn) [BBI-4000, (2R,3′R) 3-(2-cyclopentyl-2-phenyl-2-hydroxyacetoxy)-1-(ethoxycarbonylmethyl)-1-methylpyrrolidinium bromide]", "values": [{"measurement": "Time at which the highest concentration was observed", "setting": "[1]; after Day-14 dosing, minipig receiving 20% BBI-4000", "value": 2, "unit": "h"}, {"measurement": "Systemic exposure (PK analysis)", "setting": "[1]; dermal 10% and 20% gel, 14 days", "value": "variable, dose related systemic exposure"}, {"measurement": "Histopathology analysis of treated skin", "setting": "Göttingen Minipigs", "value": "unremarkable and identical to non-treated and vehicle treated skin"}, {"measurement": "Stability in words: baseline amount of BBI-4000 retained", "setting": "[2]; 100% ethanol (absolute or anhydrous), 7 days at 40° C.", "value": "essentially maintained the baseline amount of BBI-4000"}, {"measurement": "BBI-4000 Assay, Change from Baseline (40° C./75%), reduction", "setting": "[2]; solvent 30% water, 70% ethanol", "value": "reduction 5%"}, {"measurement": "BBI-4000 Main Hydrolysis Products (RRT-0.79-0.84)", "setting": "[2]; solvent 30% water, 70% ethanol, Day 7 @ 25° C./60%", "value": 0.84, "unit": "%"}, {"measurement": "BBI-4000 Main Hydrolysis Products (RRT-0.79-0.84)", "setting": "[2]; solvent 30% water, 70% ethanol, Day 7 @ 40° C./75%", "value": 3.50, "unit": "%"}, {"measurement": "BBI-4000 Main Hydrolysis Products (RRT-0.79-0.84)", "setting": "[2]; solvent 30% water, 70% ethanol, baseline", "value": 0}, {"measurement": "BBI-4000 Assay, Change from Baseline (40° C./75%), reduction", "setting": "[2]; solvent 60% water, 40% ethanol", "value": "reduction 5%"}, {"measurement": "BBI-4000 Main Hydrolysis Products (RRT-0.79-0.84)", "setting": "[2]; solvent 60% water, 40% ethanol, Day 7 @ 25° C./60%", "value": 0.83, "unit": "%"}, {"measurement": "BBI-4000 Main Hydrolysis Products (RRT-0.79-0.84)", "setting": "[2]; solvent 60% water, 40% ethanol, Day 7 @ 40° C./75%", "value": 3.40, "unit": "%"}, {"measurement": "BBI-4000 Main Hydrolysis Products (RRT-0.79-0.84)", "setting": "[2]; solvent 60% water, 40% ethanol, baseline", "value": 0}, {"measurement": "BBI-4000 Assay, Change from Baseline (40° C./75%), reduction", "setting": "[2]; solvent 100% ethanol", "value": "reduction <1%"}, {"measurement": "BBI-4000 Assay", "setting": "[2]; [5]", "value": 2, "unit": "%"}, {"measurement": "BBI-4000 Main Hydrolysis Products (RRT-0.79-0.84)", "setting": "[2]; [5]", "value": 0}, {"measurement": "BBI-4000 Main Hydrolysis Products (RRT-0.79-0.84)", "setting": "[2]; solvent 100% ethanol, Day 7 @ 40° C./75%", "value": 0}, {"measurement": "BBI-4000 Main Hydrolysis Products (RRT-0.79-0.84)", "setting": "[2]; solvent 100% ethanol, baseline", "value": 0}, {"measurement": "BBI-4000 Assay, Change from Baseline (40° C./75%), reduction", "setting": "[2]; solvent 100% water", "value": "reduction 9.5%"}, {"measurement": "BBI-4000 Main Hydrolysis Products (RRT-0.79-0.84)", "setting": "[2]; solvent 100% water, Day 7 @ 25° C./60%", "value": 1.90, "unit": "%"}, {"measurement": "BBI-4000 Assay", "setting": "[2]; solvent 100% water, Day 7 @ 40° C./75%", "value": 1.80, "unit": "%"}, {"measurement": "BBI-4000 Main Hydrolysis Products (RRT-0.79-0.84)", "setting": "[2]; solvent 100% water, baseline", "value": 0}, {"measurement": "Comparison of 10% gel and 5% gel (sweat reduction and HDSS improvement)", "setting": "[3]; Cohort 2, small sample size, no definitive conclusion", "value": "BBI-4000 10% gel performed better than BBI-4000 5% gel"}, {"measurement": "Subjects reporting a >2-point improvement in HDSS", "setting": "[3]; Day 15, 5% and 10% gel aggregated (8 of 12)", "value": 67, "unit": "%"}, {"measurement": "Proportion of subjects with at least a 50% reduction in sweat production", "setting": "[3]; Day 15, 5% and 10% gel aggregated (9 of 12)", "value": 75, "unit": "%"}, {"measurement": "Stability of the aqueous formulation system, in words", "setting": "[4]", "value": "lack of stability of this formulation system"}]}
